# Patent US5698547A, “Cephalosporin antibiotics” (Microcide Pharmaceuticals, Inc., priority 1995, dated 1997)
# Where a name gives a salt, the structure may show the parent alone. Read-outs that look alike come from different tables or passages of the source.
# How the values were obtained:
# [1] = tested on: S. aureus Col (Meth^R) (lac^-); experiment: MIC by agar dilution, S. aureus Col (Meth^R) (lac^-); type: cell-based; details: for activity against S. aureus Col: in words, PBP2a producer; for MIC: Staphylococcus aureus, agar dilution, S. aureus Col (Meth^R) (lac^-), read-out: MIC
# Method in brief: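 Agar dilution per NCCLS (1991): two-fold dilutions from 128 μg/mL down to ≤0.25 μg/mL in Mueller-Hinton agar, each level in duplicate. Spots of about 10^4 cfu of log-phase culture; 16-20 h at 35°-36° C. MIC in μg/ml is the lowest concentration inhibiting growth.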
# [2] = tested on: S. aureus Col8A (Meth^S) (lac^-); experiment: MIC by agar dilution, S. aureus Col8A (Meth^S) (lac^-); type: cell-based; details: for MIC: Staphylococcus aureus, agar dilution, S. aureus Col8A (Meth^S) (lac^-), read-out: MIC
# Description: (§1) The compounds of the invention were evaluated against several β-lactamresistant bacteria strains by determining the minimum inhibitory concentration (MIC, μg/ml) of each compound with respect to each strain. The MIC, the lowest concentration of antibiotic which inhibits growth of the test organism, was determined by the agar dilution method.
# (§2) To determine the MIC for bacterial isolates, the test compound was incorporated in a series of two-fold dilutions into liquified Mueller-Hinton agar. Upon solidification, a number of different bacterial strains were spot inoculated with a replicating device onto the agar surface. […] The procedures used in these studies have been standardized by the National Committee for Clinical Laboratory Standards (NCCLS), as per the NCCLS publication entitled METHODS FOR DILUTION ANTIMICROBIAL SUSCEPTIBILITY TESTS (1991), which is incorporated herein by reference.
# (§3) Aliquots of antimicrobial agents were prepared in phosphate buffered saline (PBS) at pH 7.2. Tween 20 or DMSO was used as a solubilizing vehicle as needed. Standard methods of vortexing, sonicating and gentle heat were used to facilitate solubilizing the test agent. Typically, the concentration of the stock solution was 10× that of the highest drug concentration tested. A 1.28 mg/mL stock solution was used with a subsequent highest working concentration of 128 μg/mL. Serial two-fold dilutions were done through ≤0.25 μg/mL. Each drug level was tested in duplicate. Two-fold drug dilutions were done in sterile 50 mL tubes with a final drug volume of 5 mL. Upon the addition of 45 mL of molten agar, a 10-fold dilution resulted. Two, 25 mL. plates were then poured into 15×150 mm square Petri plates with grids and allowed to harden.
# (§4) A control plate with a reference drug, either cefotaxime, vancomycin or imipenem, was used as the positive growth control. Stock concentrations of reference antibiotics were prepared and frozen at -80° C. Upon preparation, the control plates were sealed and stored in the refrigerator for up to 1 week prior to use; however, imipenem control plates had to be prepared just prior to use. All test plates were used within 24 hours of preparation.
# (§5) Satisfactory results were obtained where the inoculum contained about 10^4 colony forming units (cfu) ±0.5 logs. Starting with pure cultures of the test isolates on agar plates, a few isolated colonies were transferred to a tube of nutrient broth and allowed to grow 4-6 hours at 35°-36° C. to reach log-phase growth. Dropwise addition of the broth culture to PBS was done to match a 0.5 McFarland turbidity standard equal to 10^8 cfu/mL. This was further diluted ten-fold in PBS to reach a working inoculum concentration of 10^7 cfu/mL. When 1 μL of the working inoculum was applied to the agar surface a concentration of about 10^4 cfu per spot was obtained.
# (§6) Disposable sterile 1 μL loops were used to inoculate test plates, with each isolate in a designated grid on the agar plate. An alternate method of inoculation involved the use of a replica plater, a device with 48 steel pins allowing the simultaneous inoculation of multiple isolates. After the spots had dried, the plates were incubated at 35°-36° C. for 16-20 hours. Endpoints were assessed as the minimum inhibitory concentration (MIC) of antimicrobial agent.
# The novel agents of this invention are notable for their enhanced activity against S. aureus Col and Enterococci (E. faecium and E. faecalis). The S. aureus Col strain is a high-level PBP2a producer, whereas S. aureus Col 8A, its isogenic partner, lacks PBP2a. […] Thus, the compounds of the present invention are effective against PBP2a-producing bacteria.
# [3] = tested on: Enterococci (E. faecium and E. faecalis); experiment: In vitro antibacterial evaluation, Enterococci; type: cell-based; details: in words
# Description: as §1, §2, §3
# A control plate with a reference drug, either cefotaxime, vancomycin or imipenem, was used as the positive growth control. […]
# Disposable sterile 1 μL loops were used to inoculate test plates, with each isolate in a designated grid on the agar plate. […] Endpoints were assessed as the minimum inhibitory concentration (MIC) of antimicrobial agent.
# [4] = tested on: methicillin-susceptible S. aureus strain ATCC 13709; experiment: murine model for lethal bacteremic peritonitis; type: in vivo, female Swiss-Webster mice; details: subcutaneous, 72 h; for ED50: Staphylococcus aureus, ATCC13709, sc, two equal doses, S. aureus ATCC 13709 IP challenge, read-out: ED50
# Method in brief: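 Female Swiss-Webster mice challenged IP with an LD100 titer of bacteria in 7% hog gastric mucin; groups of 10 treated SC with twofold drug increments (0.01–512 mg/kg) as two equal doses at challenge and 2 h later. Survival followed for 72 h; PD50 (total mg/kg) calculated by probit method.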
# S. aureus ATCC 29213 = experiment: MIC by agar dilution, S. aureus ATCC 29213; type: cell-based; details: Staphylococcus aureus, ATCC29213
# Description: as §1, §2, §3, §4, §5, §6
# [5] = tested on: S. aureus 76 (Meth^R) (lac^+); experiment: MIC by agar dilution, S. aureus 76 (Meth^R) (lac^+); type: cell-based; details: Staphylococcus aureus, read-out: MIC
# Description: as §1, §2, §3, §4, §5, §6
# S. haemolyticus (Meth^R) = experiment: MIC by agar dilution, S. haemolyticus (Meth^R); type: cell-based; details: Staphylococcus haemolyticus, read-out: MIC
# Description: as §1, §2, §3, §4, §5, §6
# E. faecium ATCC 35667 = experiment: MIC by agar dilution, E. faecium ATCC 35667; type: cell-based; details: Enterococcus faecium, ATCC35667, read-out: MIC
# Description: as §1, §2, §3, §4, §5, §6
# E. faecalis ATCC 29212 = experiment: MIC by agar dilution, E. faecalis ATCC 29212; type: cell-based; details: Enterococcus faecalis, ATCC29212, read-out: MIC
# Description: as §1, §2, §3, §4, §5, §6
# E. coli ATCC 25922 = experiment: MIC by agar dilution, E. coli ATCC 25922; type: cell-based; details: Escherichia coli, ATCC25922, read-out: MIC
# Description: as §1, §2, §3, §4, §5, §6
# P. aeruginosa ATCC 27853 = experiment: MIC by agar dilution, P. aeruginosa ATCC 27853; type: cell-based; details: Pseudomonas aeruginosa, ATCC27853, read-out: MIC
# Description: as §1, §2, §3, §4, §5, §6
Compound,activity against S. aureus Col [1],activity against Enterococci [3],Mortality ([4]; dose 0.625 mg/kg),MIC [1] [µg/mL],MIC [5] [µg/mL],MIC [2] [µg/mL],MIC (S. haemolyticus (Meth^R)) [µg/mL],MIC (E. faecium ATCC 35667) [µg/mL],MIC (E. faecalis ATCC 29212) [µg/mL],MIC (E. coli ATCC 25922) [µg/mL],MIC (P. aeruginosa ATCC 27853) [µg/mL],ED50 [4] [mg/kg],Mortality ([4]; dose 0.0391 mg/kg),Mortality ([4]; dose 0.0781 mg/kg),Mortality ([4]; dose 0.1562 mg/kg),Mortality ([4]; dose 0.3125 mg/kg),also measured
"O=C(Cc1ccccc1)N[C@@H]1C(=O)N2C(C(=O)O)=C(Sc3ccccc3I)CS[C@H]12 [Cmpd 6, (7R)-7-[(Phenylacetyl)amino]-3-(o-iodophenylthio)-3-cephem-4-carboxylic acid]",broad activity,broad activity,9/10,–,–,–,–,–,–,–,–,–,–,–,–,–,"activity against S. aureus Col 8A ([2]; in words, lacks PBP2a): broad activity; Mortality ([4]; dose 1.25 mg/kg): 4/10; Mortality ([4]; dose 2 mg/kg): 8/10; Mortality ([4]; dose 2.5 mg/kg): 4/10; Mortality ([4]; dose 4 mg/kg): 5/10; Mortality ([4]; dose 5 mg/kg): 1/10; Mortality ([4]; dose 8 mg/kg): 1/10; Mortality ([4]; dose 10 mg/kg): 1/10; Mortality ([4]; dose 16 mg/kg): 0/10"
"N=C(N)SCCSCC(=O)N[C@@H]1C(=O)N2C(C(=O)O)=C(Sc3ccccc3CSC(=N)N)CS[C@H]12 [Cmpd 143, (7R)-7-[((2-(isothiouronium)ethylthio)acetyl)amino]-3-[2-(isothiouroniummethyl)phenylthio]-3-cephem-4-carboxylate, trifluoroacetic acid salt]",–,–,2/10,8,16,0.125,16,0.5,0.5,8,> 32,0.34,9/10,8/10,9/10,6/10,MIC (S. aureus ATCC 29213): 0.125 µg/mL
"O=C(Cc1ccccc1)N[C@@H]1C(=O)N2C(C(=O)O)=C(SCc3ccc(-c4ccccc4)cc3)CS[C@H]12 [Cmpd 12, (7R)-7-[(Phenylacetyl)amino]-3-(4-biphenylmethylthio)-3-cephem-4-carboxylic acid]",lacking activity,potent activity,–,> 32,–,–,–,–,–,–,–,–,–,–,–,–,–
"N=C(N)SCc1ccc(SC2=C(C(=O)O)N3C(=O)[C@@H](NC(=O)Cc4ccccc4)[C@H]3SC2)c(CSC(=N)N)c1 [Cmpd 138, (7R)-7-[(phenylacetyl)amino]-3-[2,4-(bis) (isothiouroniummethyl)phenylthio]-3-cephem-4-carboxylate, trifluoroacetic acid salt]",–,–,–,2,8,≤ 0.06,8,0.5,0.5,32,> 32,0.075,10/10,6/10,0/10,0/10,"MIC (S. aureus ATCC 29213; agar dilution, S. aureus ATCC 29213, read-out: MIC): 0.125 µg/mL; Mortality ([4]; dose 0.0195 mg/kg): 9/10"
